Assay results reported in ChEMBL document CHEMBL3045229, “Molluscicidal and insecticidal potential of monoterpenes on the white garden snail, Theba pisana (Muller) and the cotton leafworm, Spodoptera littoralis (Boisduval)” (2010).
In brackets after ≈: the same amount, converted by molar mass. Activity calls are given as the source filed them. No cut-off for these calls is given here.

Experiments:
Type in all cases: functional
Spodoptera littoralis [1] = experiment: Contact insecticidal activity against cotton leafworm Spodoptera littoralis third-instar larvae exposed to 1 mg/larva compound application through dorsum of larvae followed by feeding on fresh castor bean leaves assessed as insect mortality after 24 hr; settings: for Activity: Skin of body
Spodoptera littoralis [2] = experiment: Fumigant insecticidal activity against cotton leafworm Spodoptera littoralis third-instar larvae fed on fresh castor bean leaves assessed as insect mortality after 24 hr
Theba pisana [3] = experiment: Fumigant molluscicidal activity against Theba pisana (white garden snail) assessed as snail mortality after 24 hr
Theba pisana [4] = experiment: Contact molluscicidal activity against Theba pisana (white garden snail ) exposed to compound throgh application to surface of snail body inside shell assessed as compound level per snail causing snail mortality after 24 hr

`C=C(C)[C@@H]1CC=C(C)CC1` [(-)-LIMONENE] was tested, and the Activity (Spodoptera littoralis [1]) was “Active”, the LC50 (Spodoptera littoralis [2]) was 11.4 µg/mL (≈ 83.4 µM) and the LC50 (Theba pisana [3]) was 8.39 µg/mL (≈ 61.6 µM). For the same compound, the LD50 (Theba pisana [4]) was 60.27 µg.

With `C=C[C@@](C)(O)CC=C(C)C` [(-)-LINALOOL] the Activity (Spodoptera littoralis [1]) was “Active”.

In the case of `CC1(C)C(=O)[C@@]2(C)CC[C@H]1C2` [(L)-FENCHONE], the Activity (Spodoptera littoralis [1]) is reported as “Active”, the LC50 (Spodoptera littoralis [2]) is reported as 2.27 µg/mL (≈ 14.9 µM) and the LC50 (Theba pisana [3]) is reported as 2.51 µg/mL (≈ 16.5 µM). The LD50 (Theba pisana [4]) was 135.36 µg.

For `C=C1C2CCC(C2)C1(C)C` (configuration not stated) [CAMPHENE], the Activity (Spodoptera littoralis [1]) was “Active”, the LC50 (Spodoptera littoralis [2]) was over 100 µg/mL and the LC50 (Theba pisana [3]) was 33.5 µg/mL (≈ 246 µM). For the same compound, the LD50 (Theba pisana [4]) was over 1000 µg.

In the case of `CC12CCC(CC1=O)C2(C)C` (configuration not stated) [CAMPHOR], the Activity (Spodoptera littoralis [1]) is reported as “Active”, the LC50 (Spodoptera littoralis [2]) is reported as 5.61 µg/mL (≈ 36.9 µM) and the LC50 (Theba pisana [3]) is reported as 7.98 µg/mL (≈ 52.4 µM). For the same compound, the LD50 (Theba pisana [4]) was 89.15 µg.

With `CC(C)c1ccc(C=O)cc1` [CUMINALDEHYDE] the mortality (Spodoptera littoralis [1]) was 70%, the LC50 (Spodoptera littoralis [2]) was over 100 µg/mL and the LC50 (Theba pisana [3]) was over 100 µg/mL. It also gave an LD50 (Theba pisana [4]) of 28.37 µg.

With `CC12CCC(CC1)C(C)(C)O2` [EUCALYPTOL] the Activity (Spodoptera littoralis [1]) was “Active”, the LC50 (Spodoptera littoralis [2]) was 4.34 µg/mL (≈ 28.1 µM) and the LC50 (Theba pisana [3]) was 4.17 µg/mL (≈ 27 µM). The LD50 (Theba pisana [4]) was 223.44 µg.

`CC(C)=CCC/C(C)=C/CO` [GERANIOL] gave a mortality (Spodoptera littoralis [1]) of 76.7%, an LC50 (Spodoptera littoralis [2]) of over 100 µg/mL and an LC50 (Theba pisana [3]) of over 100 µg/mL. For the same compound, the LD50 (Theba pisana [4]) was 42.29 µg.

In the case of `C=C(C)[C@@H]1CC=C(C)C(=O)C1` [L-CARVONE], the Activity (Spodoptera littoralis [1]) is reported as “Active”, the LC50 (Spodoptera littoralis [2]) is reported as 19.5 µg/mL (≈ 130 µM) and the LC50 (Theba pisana [3]) is reported as 27 µg/mL (≈ 180 µM). The LD50 (Theba pisana [4]) was 132.18 µg.

For `CC1CCC(C(C)C)C(O)C1` (configuration not stated) [MENTHOL], the Activity (Spodoptera littoralis [1]) was “Active”, the LC50 (Spodoptera littoralis [2]) was 9.36 µg/mL (≈ 59.9 µM) and the LC50 (Theba pisana [3]) was over 100 µg/mL. It also gave an LD50 (Theba pisana [4]) of 99.44 µg.

`CNC(=O)Oc1cc(C)c(SC)c(C)c1` [METHIOCARB] gave an LD50 (Theba pisana [4]) of 188.68 µg.

In the case of `C=CC(=C)CCC=C(C)C` [MYRCENE], the Activity (Spodoptera littoralis [1]) is reported as “Active”, the LC50 (Spodoptera littoralis [2]) is reported as over 100 µg/mL and the LC50 (Theba pisana [3]) is reported as 3.88 µg/mL (≈ 28.5 µM). For the same compound, the LD50 (Theba pisana [4]) was over 1000 µg.
